From patent US20140309295A1, “ANTIEPILEPTIC, HYPOCHOLESTEROLEMIC AND NEUROPROTECTIVE COMPOUND” (NEURON BIOPHARMA, S.A., priority 2009, published 2014)

Assays:
[1] = tested on: human neuroblastoma SK-N-MC cells; assay: Protection against neuronal death induced by inhibition of succinate dehydrogenase (3-NP), WST-1; type: cell-based; conditions: 40 μM NST0037; 30 μM 3-NP
Procedure: The assay was performed on human neuroblastoma SK-N-MC cells in culture from the American Type Culture Collection (ATCC), in all cases strict rules of sterility were followed and the manipulation was performed in class II biological safety cabinets following European standard EN 12469. The cells were maintained in the following culture medium: Minimum Essential Medium Eagle (MEM) supplemented with 1 mM sodium pyruvate, 2 mM L-glutamine, 0.1 mM non-essential amino acids, 0.05 mg/ml gentamicin and 10% fetal bovine serum.
The inhibition caused by compound NST0037 of cell death caused by treatment with 3-Nitropropionic (3-NP) acid was analyzed. 3-NP is an irreversible inhibitor of the succinate dehydrogenase enzyme which in animal models causes oxidative stress and apoptotic cell death in the striatum, which mimics neurochemical and anatomical changes associated with Huntington's disease (HD). […]
The cells were incubated (at 37° C. and 5% CO2) with these treatments for 22 hours, after which time the WST-1 reagent (Roche) was added. […] The formazan which is formed can be detected colorimetrically since it has an absorbance of 440 nm. The reading was taken in a plate reader at 440 nm 2 hours after adding the reagent.

[2] = tested on: ApoB100 mice; assay: Hypocholesterolemic effect, oral three months, endogenous hyperlipidemia model; type: in vivo; conditions: 50 mg/kg oral, 3 months
Procedure: (§1) All the animals included for the experimental process were 6-month old female mice. The experiments were conducted strictly following the Guidance on the Operation of Animals (Scientific Procedures, Act. 1986). The animals had their respective quarantine period and were treated with maximum precaution to minimize possible contaminations for inoculations and handling.
After a conditioning to the diet, 50 mg/kg of NST0021 or NST0037 were orally administered to the mice for 3 months, three times a week, using in both cases 0.25% carboxy methylcellulose in physiological saline as a vehicle. The control group received this same vehicle. Before starting the treatments and at one, two and three months of starting them, retro-orbital blood extractions after fasting for 16 hours were carried out. The plasma was obtained from said blood, in which the total cholesterol (TC), free cholesterol (FC), cholesterol (EC), HDL-c, LDL-c, VLDL-c levels were evaluated by enzymatic and spectrophotometric techniques.

[3] = tested on: FVB/NHan mice inoculated with kainate (KA); assay: Mortality caused by kainate in mice (Kaplan-Meier); type: in vivo; conditions: 50 mg/kg i.p.
Procedure: as §1, with “12-week” for “6-month”, “males of the FVB/NHan strain.” for “female mice.”, “handling. […]” for “handling.”
The deaths were recorded during the entire time the assay lasted, and the results are shown in FIG. 8 by means of Kaplan-Meier survival curves. […]

CCC(CC)C(=O)O[C@H]1C[C@@H](C)C=C2C=C[C@H](C)[C@H](CC[C@@H]3C[C@@H](O)CC(=O)O3)[C@H]21 [NST0037, (1S,2S,6R,8S,8aR)-1,2,6,7,8,8a-hexahydro-3,7-dimethyl-8-[2-[(2R,4R)-tetrahydro-4-hydroxy-6-oxo-2H-pyran-2-yl]ethyl]-1-naphthalenyl-2-ethyl-butyrate]
protection against death caused by 3-NP [1]: 41% | FC and EC levels [2]: significant reduction of both FC and EC | HDL-c levels [2]: increase the HDL-c levels | LDL-c levels vs simvastatin [2]: reduced to a greater extent | cholesterol fractions ([2]; three times a week, female apoB100 mice): reduced the different cholesterol fractions | mortality caused by KA (survival) ([3]; NST0037+KA+NST0037 regimen): protected against death | survival of the animals vs PBS+KA+PBS ([3]; PBS+KA+NST0037 regimen): increases
